# System: Calu-6;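 note: growth of human Calu-6 cells, read out by a cell viability assay, IC50 marking inhibition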
# Assay: cells
# Assay type: functional, cell-based, Homo sapiens
# Conditions: Homo sapiens, Calu-6
# Description: SANGER: Inhibition of human Calu-6 cell growth in a cell viability assay.
row,Compound,IC50 [µM]
1,Cc1ccc(-c2c(C(=O)CCl)n(CCCO)c3ncnc(N)c23)cc1,> 4

# System: D-247MG
# Assay: cells
# Assay type: functional, cell-based, Homo sapiens
# Conditions: Homo sapiens, D-247MG
# Description: SANGER: Inhibition of human D-247MG cell growth in a cell viability assay.
row,Compound,IC50 [µM]
1,Cc1ccc(-c2c(C(=O)CCl)n(CCCO)c3ncnc(N)c23)cc1,> 4

# System: D-263MG
# Assay: cells
# Assay type: functional, cell-based, Homo sapiens
# Conditions: Homo sapiens, D-263MG
# Description: SANGER: Inhibition of human D-263MG cell growth in a cell viability assay.
row,Compound,IC50 [µM]
1,Cc1ccc(-c2c(C(=O)CCl)n(CCCO)c3ncnc(N)c23)cc1,> 4

# System: DB
# Assay: cells
# Assay type: functional, cell-based, Homo sapiens
# Conditions: Homo sapiens, DB
# Description: SANGER: Inhibition of human DB cell growth in a cell viability assay.
row,Compound,IC50 [µM]
1,Cc1ccc(-c2c(C(=O)CCl)n(CCCO)c3ncnc(N)c23)cc1,> 4

# System: DMS-79;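 note: growth inhibition measured with a cell viability assay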
# Assay: cells
# Assay type: functional, cell-based, Homo sapiens
# Conditions: Homo sapiens, DMS-79
# Description: SANGER: Inhibition of human DMS-79 cell growth in a cell viability assay.
row,Compound,IC50 [µM]
1,Cc1ccc(-c2c(C(=O)CCl)n(CCCO)c3ncnc(N)c23)cc1,> 4

# System: DU-4475
# Assay: cells
# Assay type: functional, cell-based, Homo sapiens
# Conditions: Homo sapiens, DU-4475
# Description: SANGER: Inhibition of human DU-4475 cell growth in a cell viability assay.
row,Compound,IC50 [µM]
1,Cc1ccc(-c2c(C(=O)CCl)n(CCCO)c3ncnc(N)c23)cc1,> 4

# System: EW-1;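 note: growth inhibition of the human EW-1 cell line, read out by a cell viability assay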
# Assay: cells
# Assay type: functional, cell-based, Homo sapiens
# Conditions: Homo sapiens, EW-1
# Description: SANGER: Inhibition of human EW-1 cell growth in a cell viability assay.
row,Compound,IC50 [µM]
1,Cc1ccc(-c2c(C(=O)CCl)n(CCCO)c3ncnc(N)c23)cc1,> 4

# System: HCC2218;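 note: cell viability assay read-out, with IC50 given as the concentration that inhibits growth of the cell line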
# Assay: cells
# Assay type: functional, cell-based, Homo sapiens
# Conditions: Homo sapiens, HCC2218
# Description: SANGER: Inhibition of human HCC2218 cell growth in a cell viability assay.
row,Compound,IC50 [µM]
1,Cc1ccc(-c2c(C(=O)CCl)n(CCCO)c3ncnc(N)c23)cc1,> 4

# System: HEL;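 note: growth inhibition of HEL cells, read out with a cell viability assay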
# Assay: cells
# Assay type: functional, cell-based, Homo sapiens
# Conditions: Homo sapiens, HEL
# Description: SANGER: Inhibition of human HEL cell growth in a cell viability assay.
row,Compound,IC50 [µM]
1,Cc1ccc(-c2c(C(=O)CCl)n(CCCO)c3ncnc(N)c23)cc1,> 4

# System: HT
# Assay: cells
# Assay type: functional, cell-based, Homo sapiens
# Conditions: Homo sapiens, HT
# Description: SANGER: Inhibition of human HT cell growth in a cell viability assay.
row,Compound,IC50 [µM]
1,Cc1ccc(-c2c(C(=O)CCl)n(CCCO)c3ncnc(N)c23)cc1,> 4

# System: HT-144
# Assay: cells
# Assay type: functional, cell-based, Homo sapiens
# Conditions: Homo sapiens, HT-144
# Description: SANGER: Inhibition of human HT-144 cell growth in a cell viability assay.
row,Compound,IC50 [µM]
1,Cc1ccc(-c2c(C(=O)CCl)n(CCCO)c3ncnc(N)c23)cc1,3.28

# System: HuTu80;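 note: growth inhibition of HuTu80 human cells, determined with a cell viability readout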
# Assay: cells
# Assay type: functional, cell-based, Homo sapiens, HUTU-80
# Conditions: Homo sapiens, HuTu80
# Description: SANGER: Inhibition of human HUTU-80 cell growth in a cell viability assay.
row,Compound,IC50 [µM]
1,Cc1ccc(-c2c(C(=O)CCl)n(CCCO)c3ncnc(N)c23)cc1,> 4

# System: JAR;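 note: growth inhibition of human JAR cells determined with a cell viability assay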
# Assay: cells
# Assay type: functional, cell-based, Homo sapiens
# Conditions: Homo sapiens, JAR
# Description: SANGER: Inhibition of human JAR cell growth in a cell viability assay.
row,Compound,IC50 [µM]
1,Cc1ccc(-c2c(C(=O)CCl)n(CCCO)c3ncnc(N)c23)cc1,> 4

# System: KM12;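 note: KM12 cell growth inhibition, read out with a cell viability assay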
# Assay: cells
# Assay type: functional, cell-based, Homo sapiens
# Conditions: Homo sapiens, KM12
# Description: SANGER: Inhibition of human KM12 cell growth in a cell viability assay.
row,Compound,IC50 [µM]
1,Cc1ccc(-c2c(C(=O)CCl)n(CCCO)c3ncnc(N)c23)cc1,> 4

# System: LB996-RCC
# Assay: cells
# Assay type: functional, cell-based, Homo sapiens
# Conditions: Homo sapiens, LB996-RCC
# Description: SANGER: Inhibition of human LB996-RCC cell growth in a cell viability assay.
row,Compound,IC50 [µM]
1,Cc1ccc(-c2c(C(=O)CCl)n(CCCO)c3ncnc(N)c23)cc1,> 4

# System: LC-2-ad;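 note: growth inhibition of human LC-2-ad cells, read out with a cell viability assay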
# Assay: cells
# Assay type: functional, cell-based, Homo sapiens
# Conditions: Homo sapiens, LC-2-ad
# Description: SANGER: Inhibition of human LC-2-ad cell growth in a cell viability assay.
row,Compound,IC50 [µM]
1,Cc1ccc(-c2c(C(=O)CCl)n(CCCO)c3ncnc(N)c23)cc1,2.74

# System: LNCaP-Clone-FGC
# Assay: cells
# Assay type: functional, cell-based, Homo sapiens
# Conditions: Homo sapiens, LNCaP-Clone-FGC
# Description: SANGER: Inhibition of human LNCaP-Clone-FGC cell growth in a cell viability assay.
row,Compound,IC50 [µM]
1,Cc1ccc(-c2c(C(=O)CCl)n(CCCO)c3ncnc(N)c23)cc1,> 4

# System: MZ1-PC;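 note: cell viability assay measuring growth inhibition of human MZ1-PC cells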
# Assay: cells
# Assay type: functional, cell-based, Homo sapiens
# Conditions: Homo sapiens, MZ1-PC
# Description: SANGER: Inhibition of human MZ1-PC cell growth in a cell viability assay.
row,Compound,IC50 [µM]
1,Cc1ccc(-c2c(C(=O)CCl)n(CCCO)c3ncnc(N)c23)cc1,2.92

# System: MZ7-mel;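 note: growth inhibition of human MZ7-mel cells, measured by a cell viability assay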
# Assay: cells
# Assay type: functional, cell-based, Homo sapiens
# Conditions: Homo sapiens, MZ7-mel
# Description: SANGER: Inhibition of human MZ7-mel cell growth in a cell viability assay.
row,Compound,IC50 [µM]
1,Cc1ccc(-c2c(C(=O)CCl)n(CCCO)c3ncnc(N)c23)cc1,> 4

# System: NB10;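 note: growth inhibition of NB10 cells, read out by a cell viability assay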
# Assay: cells
# Assay type: functional, cell-based, Homo sapiens
# Conditions: Homo sapiens, NB10
# Description: SANGER: Inhibition of human NB10 cell growth in a cell viability assay.
row,Compound,IC50 [µM]
1,Cc1ccc(-c2c(C(=O)CCl)n(CCCO)c3ncnc(N)c23)cc1,> 4

# System: NB5;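 note: growth inhibition of NB5 cells, read out as cell viability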
# Assay: cells
# Assay type: functional, cell-based, Homo sapiens
# Conditions: Homo sapiens, NB5
# Description: SANGER: Inhibition of human NB5 cell growth in a cell viability assay.
row,Compound,IC50 [µM]
1,Cc1ccc(-c2c(C(=O)CCl)n(CCCO)c3ncnc(N)c23)cc1,> 4

# System: NCI-H1092;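 note: cell growth inhibition measured with a cell viability assay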
# Assay: cells
# Assay type: functional, cell-based, Homo sapiens
# Conditions: Homo sapiens, NCI-H1092
# Description: SANGER: Inhibition of human NCI-H1092 cell growth in a cell viability assay.
row,Compound,IC50 [µM]
1,Cc1ccc(-c2c(C(=O)CCl)n(CCCO)c3ncnc(N)c23)cc1,> 4

# System: NCI-H2126;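 note: growth inhibition of the cancer cell line, determined with a cell viability readout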
# Assay: cells
# Assay type: functional, cell-based, Homo sapiens
# Conditions: Homo sapiens, NCI-H2126
# Description: SANGER: Inhibition of human NCI-H2126 cell growth in a cell viability assay.
row,Compound,IC50 [µM]
1,Cc1ccc(-c2c(C(=O)CCl)n(CCCO)c3ncnc(N)c23)cc1,> 4

# System: NCI-H226;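 note: cell viability read-out used to gauge growth inhibition of the cells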
# Assay: cells
# Assay type: functional, cell-based, Homo sapiens
# Conditions: Homo sapiens, NCI-H226
# Description: SANGER: Inhibition of human NCI-H226 cell growth in a cell viability assay.
row,Compound,IC50 [µM]
1,Cc1ccc(-c2c(C(=O)CCl)n(CCCO)c3ncnc(N)c23)cc1,> 4

# System: NCI-H446;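 note: growth inhibition of NCI-H446 cells determined by a cell viability assay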
# Assay: cells
# Assay type: functional, cell-based, Homo sapiens
# Conditions: Homo sapiens, NCI-H446
# Description: SANGER: Inhibition of human NCI-H446 cell growth in a cell viability assay.
row,Compound,IC50 [µM]
1,Cc1ccc(-c2c(C(=O)CCl)n(CCCO)c3ncnc(N)c23)cc1,> 4

# System: NCI-H69;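 note: growth inhibition of the cell line, read out with a cell viability assay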
# Assay: cells
# Assay type: functional, cell-based, Homo sapiens
# Conditions: Homo sapiens, NCI-H69
# Description: SANGER: Inhibition of human NCI-H69 cell growth in a cell viability assay.
row,Compound,IC50 [µM]
1,Cc1ccc(-c2c(C(=O)CCl)n(CCCO)c3ncnc(N)c23)cc1,> 4

# System: SNU-5;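 note: cell viability readout used to measure growth inhibition in human NCI-SNU-5 cells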
# Assay: cells
# Assay type: functional, cell-based, Homo sapiens
# Conditions: Homo sapiens, SNU-5
# Description: SANGER: Inhibition of human NCI-SNU-5 cell growth in a cell viability assay.
row,Compound,IC50 [µM]
1,Cc1ccc(-c2c(C(=O)CCl)n(CCCO)c3ncnc(N)c23)cc1,> 4

# System: NH-12;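 note: growth inhibition of NH-12 cells, read out with a cell viability assay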
# Assay: cells
# Assay type: functional, cell-based, Homo sapiens
# Conditions: Homo sapiens, NH-12
# Description: SANGER: Inhibition of human NH-12 cell growth in a cell viability assay.
row,Compound,IC50 [µM]
1,Cc1ccc(-c2c(C(=O)CCl)n(CCCO)c3ncnc(N)c23)cc1,> 4

# System: QIMR-WIL;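 note: growth inhibition of QIMR-WIL cells, read out with a cell viability assay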
# Assay: cells
# Assay type: functional, cell-based, Homo sapiens
# Conditions: Homo sapiens, QIMR-WIL
# Description: SANGER: Inhibition of human QIMR-WIL cell growth in a cell viability assay.
row,Compound,IC50 [µM]
1,Cc1ccc(-c2c(C(=O)CCl)n(CCCO)c3ncnc(N)c23)cc1,> 4

# System: RS4-11;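 note: growth inhibition of RS4-11 cells, read out by a cell viability assay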
# Assay: cells
# Assay type: functional, cell-based, Homo sapiens
# Conditions: Homo sapiens, RS4-11
# Description: SANGER: Inhibition of human RS4-11 cell growth in a cell viability assay.
row,Compound,IC50 [µM]
1,Cc1ccc(-c2c(C(=O)CCl)n(CCCO)c3ncnc(N)c23)cc1,> 4

# System: RXF 393;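 note: growth inhibition of human RXF 393 cells, read out with a cell viability assay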
# Assay: cells
# Assay type: functional, cell-based, Homo sapiens
# Conditions: Homo sapiens, RXF 393
# Description: SANGER: Inhibition of human RXF393 cell growth in a cell viability assay.
row,Compound,IC50 [µM]
1,Cc1ccc(-c2c(C(=O)CCl)n(CCCO)c3ncnc(N)c23)cc1,> 4

# System: Ramos-2G6-4C10;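 note: growth inhibition of the cell line, measured by a cell viability read-out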
# Assay: cells
# Assay type: functional, cell-based, Homo sapiens
# Conditions: Homo sapiens, Ramos-2G6-4C10
# Description: SANGER: Inhibition of human Ramos-2G6-4C10 cell growth in a cell viability assay.
row,Compound,IC50 [µM]
1,Cc1ccc(-c2c(C(=O)CCl)n(CCCO)c3ncnc(N)c23)cc1,> 4

# System: SCH;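 note: growth inhibition of human SCH cells, read out in a cell viability assay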
# Assay: cells
# Assay type: functional, cell-based, Homo sapiens
# Conditions: Homo sapiens, SCH
# Description: SANGER: Inhibition of human SCH cell growth in a cell viability assay.
row,Compound,IC50 [µM]
1,Cc1ccc(-c2c(C(=O)CCl)n(CCCO)c3ncnc(N)c23)cc1,> 4

# System: SJSA-1;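 note: growth inhibition of human SJSA-1 cells, read out through a cell viability measurement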
# Assay: cells
# Assay type: functional, cell-based, Homo sapiens
# Conditions: Homo sapiens, SJSA-1
# Description: SANGER: Inhibition of human SJSA-1 cell growth in a cell viability assay.
row,Compound,IC50 [µM]
1,Cc1ccc(-c2c(C(=O)CCl)n(CCCO)c3ncnc(N)c23)cc1,> 4

# System: SK-LMS-1;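 note: growth inhibition of human SK-LMS-1 cells, read out with a cell viability assay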
# Assay: cells
# Assay type: functional, cell-based, Homo sapiens
# Conditions: Homo sapiens, SK-LMS-1
# Description: SANGER: Inhibition of human SK-LMS-1 cell growth in a cell viability assay.
row,Compound,IC50 [µM]
1,Cc1ccc(-c2c(C(=O)CCl)n(CCCO)c3ncnc(N)c23)cc1,1.4

# System: SK-MEL-2;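 note: growth inhibition of human SK-MEL-2 cells measured with a cell viability assay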
# Assay: cells
# Assay type: functional, cell-based, Homo sapiens
# Conditions: Homo sapiens, SK-MEL-2
# Description: SANGER: Inhibition of human SK-MEL-2 cell growth in a cell viability assay.
row,Compound,IC50 [µM]
1,Cc1ccc(-c2c(C(=O)CCl)n(CCCO)c3ncnc(N)c23)cc1,> 4

# System: SK-PN-DW;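 note: growth inhibition measured with a viability assay on these cells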
# Assay: cells
# Assay type: functional, cell-based, Homo sapiens
# Conditions: Homo sapiens, SK-PN-DW
# Description: SANGER: Inhibition of human SK-PN-DW cell growth in a cell viability assay.
row,Compound,IC50 [µM]
1,Cc1ccc(-c2c(C(=O)CCl)n(CCCO)c3ncnc(N)c23)cc1,> 4

# System: SW684;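 note: growth inhibition of human SW684 cells, measured by a cell viability assay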
# Assay: cells
# Assay type: functional, cell-based, Homo sapiens
# Conditions: Homo sapiens, SW684
# Description: SANGER: Inhibition of human SW684 cell growth in a cell viability assay.
row,Compound,IC50 [µM]
1,Cc1ccc(-c2c(C(=O)CCl)n(CCCO)c3ncnc(N)c23)cc1,> 4

# System: A498;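 note: growth inhibition of human A498 cells, read out with a cell viability assay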
# Assay: cells
# Assay type: functional, cell-based, Homo sapiens
# Conditions: Homo sapiens, A498
# Description: SANGER: Inhibition of human A498 cell growth in a cell viability assay.
row,Compound,IC50 [µM]
1,Cc1ccc(-c2c(C(=O)CCl)n(CCCO)c3ncnc(N)c23)cc1,> 4

# System: ACN;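 note: growth inhibition of the human ACN cell line, read out via cell viability testing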
# Assay: cells
# Assay type: functional, cell-based, Homo sapiens
# Conditions: Homo sapiens, ACN
# Description: SANGER: Inhibition of human ACN cell growth in a cell viability assay.
row,Compound,IC50 [µM]
1,Cc1ccc(-c2c(C(=O)CCl)n(CCCO)c3ncnc(N)c23)cc1,> 4

# System: AM-38;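 note: growth inhibition of AM-38 cells of human origin, read out by a cell viability assay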
# Assay: cells
# Assay type: functional, cell-based, Homo sapiens
# Conditions: Homo sapiens, AM-38
# Description: SANGER: Inhibition of human AM-38 cell growth in a cell viability assay.
row,Compound,IC50 [µM]
1,Cc1ccc(-c2c(C(=O)CCl)n(CCCO)c3ncnc(N)c23)cc1,> 4

# System: BT-474
# Assay: cells
# Assay type: functional, cell-based, Homo sapiens
# Conditions: Homo sapiens, BT-474
# Description: SANGER: Inhibition of human BT-474 cell growth in a cell viability assay.
row,Compound,IC50 [µM]
1,Cc1ccc(-c2c(C(=O)CCl)n(CCCO)c3ncnc(N)c23)cc1,> 4

# System: Becker;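 note: growth inhibition of Becker cells, read out with a cell viability assay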
# Assay: cells
# Assay type: functional, cell-based, Homo sapiens
# Conditions: Homo sapiens, Becker
# Description: SANGER: Inhibition of human Becker cell growth in a cell viability assay.
row,Compound,IC50 [µM]
1,Cc1ccc(-c2c(C(=O)CCl)n(CCCO)c3ncnc(N)c23)cc1,> 4

# System: C8166;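 note: growth inhibition of human C8166 cells measured by a cell viability assay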
# Assay: cells
# Assay type: functional, cell-based, Homo sapiens
# Conditions: Homo sapiens, C8166
# Description: SANGER: Inhibition of human C8166 cell growth in a cell viability assay.
row,Compound,IC50 [µM]
1,Cc1ccc(-c2c(C(=O)CCl)n(CCCO)c3ncnc(N)c23)cc1,> 4

# System: TE-10;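 note: growth inhibition of TE-10 cells, measured by a cell viability assay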
# Assay: cells
# Assay type: functional, cell-based, Homo sapiens
# Conditions: Homo sapiens, TE-10
# Description: SANGER: Inhibition of human TE-10 cell growth in a cell viability assay.
row,Compound,IC50 [µM]
1,Cc1ccc(-c2c(C(=O)CCl)n(CCCO)c3ncnc(N)c23)cc1,> 4

# System: TE-6;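 note: growth inhibition of TE-6 cells, read out with a cell viability assay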
# Assay: cells
# Assay type: functional, cell-based, Homo sapiens
# Conditions: Homo sapiens, TE-6
# Description: SANGER: Inhibition of human TE-6 cell growth in a cell viability assay.
row,Compound,IC50 [µM]
1,Cc1ccc(-c2c(C(=O)CCl)n(CCCO)c3ncnc(N)c23)cc1,> 4

# System: TE-9;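 note: cell growth inhibition, measured with a cell viability readout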
# Assay: cells
# Assay type: functional, cell-based, Homo sapiens
# Conditions: Homo sapiens, TE-9
# Description: SANGER: Inhibition of human TE-9 cell growth in a cell viability assay.
row,Compound,IC50 [µM]
1,Cc1ccc(-c2c(C(=O)CCl)n(CCCO)c3ncnc(N)c23)cc1,> 4

# System: U-87 MG;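 note: growth inhibition of the cells measured with a viability assay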
# Assay: cells
# Assay type: functional, cell-based, Homo sapiens, U-87MG ATCC
# Conditions: Homo sapiens, U-87 MG
# Description: SANGER: Inhibition of human U-87-MG cell growth in a cell viability assay.
row,Compound,IC50 [µM]
1,Cc1ccc(-c2c(C(=O)CCl)n(CCCO)c3ncnc(N)c23)cc1,> 4

# System: UACC-257
# Assay: cells
# Assay type: functional, cell-based, Homo sapiens
# Conditions: Homo sapiens, UACC-257
# Description: SANGER: Inhibition of human UACC-257 cell growth in a cell viability assay.
row,Compound,IC50 [µM]
1,Cc1ccc(-c2c(C(=O)CCl)n(CCCO)c3ncnc(N)c23)cc1,> 4
